Test results: US20010014324A1 (priority 1998, published 2001)

Experiments:
[1] = tested on: Puccinia recondita spp. tritici; assay: Induced plant defense on wheat against Puccinia recondita spp. tritici (spray treatment); type: in vivo
Method: Ten seeds of wheat ([…]) of the variety “Arina” were grown in pots of 8 cm diameter in a mixture of ⅓ sand and ⅔ TKS1® soil at +25° C. in a 16/8 h light/dark regime. for 7 days till the primary leaf was fully expended.
Brown rust strain Puccinia recondita spp. tritici was propagated on the same variety of wheat. Fully infected, sporulating leaves were cut and the spores dusted onto water containing 0.05% of Tween 20®. The inoculum density was adjusted to 100,000 spores per ml.
Wheat plants with the secondary leaf just emerging were sprayed 7 and 3 days before inoculation. The entire plant was sprayed with PEN extract containing 1-2 g of glucose equivalents and 0.05% of Tween 20 to near run-off with an air driven spray pistol, model JATO 232 FR at 0.5 bar.
After the treatment plants were kept in the greenhouse till they were challenge inoculated. Control plants were mock treated with distilled water.
Treated or control plants were sprayed with approximately 3 ml of sporangia suspension in a ventilated inoculation chamber using an air driven spray pistol, model JATO 232 FR at 0.2 bar to generate a homogeneous layer of fine troplets on the whole seedling.
When the troplets had dried, plants were transferred to Plexiglas boxes and kept at +20° C. and a 60% relative humidity for 24 h in the dark then light was switched on and the plants kept under the same conditions for additional four days. Afterwards plants were returned to the greenhouse and kept at standard conditions as described above.
10 days after inoculation, when the fungus sporulated on control plants, the degree of infection was visually determined as % of infected leaf area on the inoculated leaves plants. The degree of protection was calculated with respect to the control plants according to the formula: [formula]

[2] = tested on: Phytophthora infestans; type: in vivo; settings: potato; standard chemical inducer at 500 ppm

## CSC(=O)c1cccc2nnsc12 [CGA 245 704]
[1]; concentration 30 ppm
  % infected: 31.3%
  % protection: 48.8%
[1]; concentration 60 ppm
  % infected: 60%
  % protection: 20%

## CC(N)CC(=O)O (stereo not drawn) [BABA, beta-butyric acid]
[2]
  % infected leaf area: 23%
  % protection: 61%
